From patent US20260272924A1, “ISOINDOLINE DERIVATIVE, BENZOINDOLE DERIVATIVE AND USE THEREOF” (SHANGHAI HELIOSON PHARMACEUTICAL CO., LTD., priority 2023, published 2026)

Each molecule was assayed on NCI-H929 multiple myeloma cells (assay: Cell Titer-GLO (CTG) assay for proliferation of NCI-H929 cells). Details: Homo sapiens, 72 hours.
Format: cell-based
Description: 1. Experimental objective: To determine inhibitory activities of compounds on NCI-H929 multiple myeloma cells.
NCI-H929 cells, purchased from Nanjing Cobioer Biotechnology Co., Ltd, were cultured in RPM11640 (Viva; C3010-0500) medium containing 10% fetal bovine serum (Viva, C04002-500) and 1% of penicillin-streptomycin at 37° C. with 5% of C02 and saturated humidity conditions.
The cells in logarithmic growth phase were plated at 5000 cells per well of a 96-well plate and after overnight incubation, compounds at 0.00512 nM, 0.0256 nM, 0.128 nM, 0.64 nM, 3.2 nM, 16 nM, 80 nM, and 400 nM were dosed into the plate with each dose in 2 duplicate wells. Cells were incubated at 37° C., 5% CO2 for 72 hours. After the incubation, the plate was placed at room temperature for half an hour, and then 50 μL of Cell Titer-Glo® (Promega, G7573) was added. The plate was placed on a shaker for uniform mixing for 2 minutes and was placed in the dark at room temperature for 10 minutes. The luminance signal was measured using SpectraMax Paradigm (Molecular Devices).
Cell activity inhibition rate (%)=1 00−(RLUcompound−RLUblank)/(RLUcontrol−RLUblank)×100%, where control refers to the 0.1% DMSO treatment group, and blank refers to the culture medium control. IC50 values and maximum inhibition rates of the compounds were calculated using a nonlinear regression function “Dose-Response-Inhibition” in Graphpad Prism 7.0.

Row | Structure (SMILES) | IC50 [nM]
1 | Cc1nncn1-c1cccc(N2CCN(Cc3ccc(Cc4ccc5c6c(cccc46)C(=O)N5C4CCC(=O)NC4=O)cc3)CC2)n1 (centres unmarked) [Example 28, 3-(6-(4-((4-(6-(3-methyl-4H-1,2,4-triazol-4-yl)pyridin-2-yl)piperazin-1-yl)methyl)benzyl)-2-oxobenzo[cd]indol-1(2H)-yl)piperidin-2,6-dione] | 0.03
2 | Cc1ncn(-c2nc(N3CCN(Cc4ccc(Cc5ccc6c7c(cccc57)C(=O)N6C5CCC(=O)NC5=O)cc4)CC3)cc(C(F)(F)F)n2)n1 (centres unmarked) [Example 69, 3-(6-(4-((4-(2-(3-methyl-1H-1,2,4-triazol-1-yl)-6-(trifluoromethyl)pyrimidin-4-yl)piperazin-1-yl)methyl)benzyl)-2-oxobenzo[cd]indol-1(2H)-yl)piperidin-2,6-dione] | 0.04
3 | Cc1ncn(-c2cccc(N3CCN(Cc4ccc(COc5cccc6c5CN([C@H]5CCC(=O)NC5=O)C6=O)cc4)CC3)n2)n1 [Example 66, (S)-3-(4-((4-((4-(6-(3-methyl-1H-1,2,4-triazol-1-yl)pyridin-2-Vl)piperazin-1-yl)methyl)benzyl)oxy)-1-oxoisoindolin-2-yl)piperidin-2,6-dione] | 0.1
4 | Cc1cc(N2CCN(Cc3ccc(Cc4ccc5c6c(cccc46)C(=O)N5C4CCC(=O)NC4=O)cc3)CC2)nc(-n2ccnc2)n1 (centres unmarked) [Example 10, 3-(6-(4-((4-(2-(1H-imidazol-1-yl)-6-methylpyrimidin-4-yl)piperazin-1-yl)methyl)benzyl)-2-oxobenzo[cd]indol-1(2H)-yl)piperidin-2,6-dione] | 0.03
5 | N#Cc1cn(-c2nc(N3CCN(Cc4ccc(Cc5ccc6c7c(cccc57)C(=O)N6C5CCC(=O)NC5=O)cc4)CC3)cc(C(F)(F)F)n2)cn1 (centres unmarked) [Example 75, 3-(6-(4-((4-(2-(4-cyano-1H-imidazol-1-yl)-6-(trifluoromethyl)pyrimidin-4-yl)piperazin-1-yl)methyl)benzyl)-2-oxobenzo[cd]indol-1(2H)-yl)piperidin-2,6-dione] | 0.02
6 | Cc1cc(C(=O)NC2CCN(Cc3ccc(Cc4ccc5c6c(cccc46)C(=O)N5C4CCC(=O)NC4=O)cc3)CC2)nc(-n2ccnc2)n1 (centres unmarked) [Example 12, N-(1-(4-((1-(2,6-dioxopiperidin-3-yl)-2-oxo-1,2-dihydrobenzo[cd]indol-6-yl)methyl)benzyl)piperidin-4-yl)-2-(1H-imidazol-1-yl)-6-methylpyrimidin-4-carboxamide] | 0.07
7 | O=C1CC[C@H](N2Cc3c(OCc4ccc(CN5CCN([C@H]6CC[C@H](NC(=O)c7ccnc(-n8ccnc8)n7)CC6)CC5)cc4)cccc3C2=O)C(=O)N1 [Example 15, N-((1R,4R)-4-(4-(4-(((2-((S)-2,6-dioxopiperidin-3-yl)-1-oxoisoindolin-4-yl)oxy)methyl)benzyl)piperazin-1-yl)cyclohexyl)-2-(1H-imidazol-1-yl)pyrimidin-4-carboxamide] | 0.1
8 | O=C1CCC(N2C(=O)c3cccc4c(Cc5ccc(CN6CCC(NC(=O)c7cccc(-n8ccnc8)n7)CC6)cc5)ccc2c34)C(=O)N1 (centres unmarked) [Example 6, N-(1-(4-((1-(2,6-dioxopiperidin-3-yl)-2-oxo-1,2-dihydrobenzo[cd]indol-6-yl)methyl)benzyl)piperidin-4-yl)-6-(1H-imidazol-1-yl)pyridin-2-carboxamide] | 0.07
9 | Cc1nc(N2CCN(Cc3ccc(Cc4ccc5c6c(cccc46)C(=O)N5C4CCC(=O)NC4=O)cc3)CC2)cc(-n2cnc(Cl)c2)n1 (centres unmarked) [Example 50, 3-(6-(4-((4-(6-(-4-chloro-1H-imidazol-1-yl)-2-methylpyrimidin-4-yl)piperazin-1-yl)methyl)benzyl)-2-oxobenzo[cd]indol-1(2H)-yl)piperidin-2,6-dione] | 0.01
10 | Cc1nc(N2CCN(Cc3ccc(Cc4ccc5c6c(cccc46)C(=O)N5C4CCC(=O)NC4=O)cc3)CC2)cc(-n2cnc(C(F)(F)F)c2)n1 (centres unmarked) [Example 29, 3-(6-(4-((4-(2-methyl-6-(4-(trifluoromethyl)-1H-imidazol-1-yl)pyrimidin-4-yl)piperazin-1-yl)methyl)benzyl)-2-oxobenzo[cd]indol-1(2H)-yl)piperidin-2,6-dione] | 0.02
11 | Cc1nc(N2CCN(C3CN(Cc4ccc(COc5cccc6c5CN([C@H]5CCC(=O)NC5=O)C6=O)cc4)C3)CC2)cc(-n2cnc(C(F)(F)F)c2)n1 [Example 78, (S)-3-(4-((4-((3-(4-(2-methyl-6-(4-(trifluoromethyl)-1H-imidazol-1-yl)pyrimidin-4-yl)piperazin-1-yl)azetidin-1-yl)methyl)benzyl)oxy)-1-oxoisoindolin-2-yl)piperidin-2,6-dione] | 0.1
12 | Cc1noc(C)c1-c1nccc(N2CCN(Cc3ccc(Cc4ccc5c6c(cccc46)C(=O)N5C4CCC(=O)NC4=O)cc3)CC2)n1 (centres unmarked) [Example 65, 3-(6-(4-((4-(2-(3,5-dimethylisoxazol-4-yl)pyrimidin-4-yl)piperazin-1-yl)methyl)benzyl)-2-oxobenzo[cd]indol-1(2H)-yl)piperidin-2,6-dione] | 0.03
13 | Cn1cncc1-c1nccc(N2CCN(Cc3ccc(Cc4ccc5c6c(cccc46)C(=O)N5C4CCC(=O)NC4=O)cc3)CC2)n1 (centres unmarked) [Example 20, 3-(6-(4-((4-(2-(1-methyl-1H-imidazol-5-yl)pyrimidin-4-yl)piperazin-1-yl)methyl)benzyl)-2-oxobenzo[cd]indol-1(2H)-yl)piperidin-2,6-dione] | 0.01
14 | O=C1CCC(N2C(=O)c3cccc4c(Cc5ccc(CN6CCN(c7nc(-c8cncs8)ncc7F)CC6)cc5)ccc2c34)C(=O)N1 (centres unmarked) [Example 60, 3-(6-(4-((4-(5-fluoro-2-(thiazol-5-yl)pyrimidin-4-yl)piperazin-1-yl)methyl)benzyl)-2-oxobenzo[cd]indol-1(2H)-yl)piperidin-2,6-dione] | 0.03
15 | [2H]C([2H])(c1ccc(Cc2ccc3c4c(cccc24)C(=O)N3C2CCC(=O)NC2=O)cc1)N1CCN(c2cc(-n3cnc(C(F)(F)F)c3)nc(C)n2)CC1 (centres unmarked) [Example 82, 3-(6-(4-((4-(2-methyl-6-(4-(trifluoromethyl)-1H-imidazol-1-yl)pyrimidin-4-yl)piperazin-1-yl)methyl-d2)benzyl)-2-oxobenzo[cd]indol-1(2H)-yl)piperidin-2,6-dione] | 0.02
16 | Cc1ncn(-c2ncc(Cl)c(N3CCN(Cc4ccc(Cc5ccc6c7c(cccc57)C(=O)N6C5CCC(=O)NC5=O)cc4)CC3)n2)n1 (centres unmarked) [Example 45, 3-(6-(4-((4-(5-chloro-2-(3-methyl-1H-1,2,4-triazol-1-yl)pyrimidin-4-yl)piperazin-1-yl)methyl)benzyl)-2-oxobenzo[cd]indol-1(2H)-yl)piperidin-2,6-dione] | 0.01
17 | NC(=O)c1cn(-c2cccc(N3CCN(Cc4ccc(COc5cccc6c5CN([C@H]5CCC(=O)NC5=O)C6=O)cc4)CC3)n2)cn1 [Example 57, (S)-1-(6-(4-(4-(((2-(2,6-dioxopiperidin-3-yl)-1-oxoisoindolin-4-yl)oxy)methyl)benzyl)piperazin-1-yl)pyridin-2-yl)-1H-imidazol-4-carboxamide] | 0.1
18 | O=C1CCC(N2C(=O)c3cccc4c(Cc5ccc(CN6CCN(CC7CCN(c8cccc(-n9ccnc9)n8)CC7)CC6)cc5)ccc2c34)C(=O)N1 (centres unmarked) [Example 8, 3-(6-(4-((4-((1-(6-(1H-imidazol-1-yl)pyridin-2-yl)piperidin-4-yl)methyl)piperazin-1-yl)methyl)benzyl)-2-oxobenzo[cd]indol-1(2H)-yl)piperidin-2,6-dione] | 0.04
19 | O=C1CCC(N2C(=O)c3cccc4c(Cc5ccc(CN6CCN(c7ccnc(-c8cncs8)n7)CC6)cc5)ccc2c34)C(=O)N1 (centres unmarked) [Example 58, 3-(2-oxo-6-(4-((4-(2-(thiazol-5-yl)pyrimidin-4-yl)piperazin-1-yl)methyl)benzyl)benzo[fcd]indol-1(2H)-yl)piperidin-2,6-dione] | 0.03
20 | Cc1nc(N2CCN(Cc3ccc(Cc4ccc5c6c(cccc46)C(=O)N5C4CCC(=O)NC4=O)cc3)CC2)cc(-n2cc(C(F)(F)F)nn2)n1 (centres unmarked) [Example 73, 3-(6-(4-((4-(2-methyl-6-(4-(trifluoromethyl)-1H-1,2,3-triazol-1-yl)pyrimidin-4-yl)piperazin-1-yl)methyl)benzyl)-2-oxobenzo[cd]indol-1(2H)-yl)piperidin-2,6-dione] | 0.03
21 | O=C1CC[C@@H](N2C(=O)c3cccc4c(Cc5ccc(CN6CCN(c7ccnc(-n8cnc(C(F)(F)F)c8)n7)CC6)cc5)ccc2c34)C(=O)N1 [Example 34, (R)-3-(2-oxo-6-(4-((4-(2-(4-(trifluoromethyl)-1H-imidazol-1-yl)pyrimidin-4-yl)piperazin-1-yl)methyl)benzyl)benzo[cd]indol-1(2H)-yl)piperidin-2,6-dione] | 0.03
22 | Cc1nc(N2CCN(Cc3ccc(Cc4ccc5c6c(cccc46)C(=O)N5C4CCC(=O)NC4=O)cc3)CC2)cc(-n2cnc(C)n2)n1 (single isomer, unassigned) [Example 47] | 0.02
23 | O=C1CCC(N2C(=O)c3cccc4c(Cc5ccc(CN6CCN(c7cccc(-n8cnc(C(F)(F)F)n8)n7)CC6)cc5)ccc2c34)C(=O)N1 (centres unmarked) [Example 62, 3-(2-oxo-6-(4-((4-(6-(3-(trifluoromethyl)-1H-1,2,4-triazol-1-yl)pyridin-2-yl)piperazin-1-yl)methyl)benzyl)benzo[cd]indol-1(2H)-yl)piperidin-2,6-dione] | 0.07
